As a reminder, the IC50 is the concentration at which inhibition is half-maximal.

Results on 14 compounds are retold here after patent publication US12338256B2, “Aza-tetracyclic oxazepine compounds and uses thereof” (Genentech, Inc., priority 2022, dated 2025).

Common to all, as to type: cell-based
Assay [1] deals with H1975 (KRAS wild type human lung adenocarcinoma cell line). Kind of assay: KRAS 3D-Cell Proliferation Assay, H1975 (Example 503). Conditions: Homo sapiens, NCI-H1975, 168 h, H1975 3D culture, 7 days, CellTiter-Glo 3D; read-out: Prolif H1975 3D ATP IC50. The gist of the method:
(§1)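 IC50s come from a 4-parameter Hill fit of luminescence (CellTiter-Glo 3D) normalized between DMSO (0%) and 1 μM staurosporine (100%). Cells in low-attachment 3D culture, RPMI-1640 with 10% FBS, received serial compound dilutions (0.3% DMSO) after overnight and were incubated 7 days at 37 °C.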
On the technique in general: In ATP-based viability assays light output follows the ATP content of the culture.

Assay [2] relates to AsPC-1 (homozygous mutant KRAS G12D human pancreatic cell line). Kind of assay: KRAS 3D-Cell Proliferation Assay, AsPC-1 (Example 503). Conditions: Homo sapiens, ASPC1, 168 h, AsPC-1 3D culture, 7 days, CellTiter-Glo 3D; read-out: Prolif AsPC-1 3D ATP IC50. The gist of the method: as §1
Assay [3] deals with HPAC (homozygous mutant KRAS G12D human pancreatic cell line). Kind of assay: KRAS 3D-Cell Proliferation Assay, HPAC (Example 503). Conditions: Homo sapiens, HPAC, 168 h, HPAC 3D culture, 7 days, CellTiter-Glo 3D; read-out: Prolif HPAC 3D ATP IC50. The procedure, abridged:
as §1

In the case of `Cc1nc(N)cc(-c2nc3c4c(nc(OCC5(CN6C7CCC6COC7)CC5)nc4c2F)N2C[C@H]4CC[C@H](N4)[C@H]2[C@H](C)O3)c1C(F)(F)F` [Compound 206, 4-((5S,5aS,6S,9R)-12-((1-((3-Oxa-8-azabicyclo[3.2.1]octan-8-yl)methyl)cyclopropyl)methoxy)-1-fluoro-5-methyl-5a,6,7,8,9,10-hexahydro-5H-4-oxa-3,10a,11,13,14-pentaaza-6,9-methanonaphtho[1,8-ab]heptalene-2-yl)-6-methyl-5-(trifluoromethyl)pyridin-2-amine], the IC50 in assay [1] is 2840 nM; in assay [2], 3.6 nM; in assay [3], 3.16 nM.
Taken in the same sequence, the figures for `Cc1nc(N)cc(-c2nc3c4c(nc(OCC5(CN6CCOCC6)CC5)nc4c2F)N2C[C@H]4CC[C@H](N4)[C@H]2[C@H](C)O3)c1C(F)(F)F` [Compound 210, 4-((5S,5aS,6S,9R)-1-Fluoro-5-methyl-12-((1-(morpholinomethyl)cyclopropyl)methoxy)-5a,6,7,8,9,10-hexahydro-5H-4-oxa-3,10a,11,13,14-pentaaza-6,9-methanonaphtho[1,8-ab]heptalene-2-yl)-6-methyl-5-(trifluoromethyl)pyridin-2-amine] were 868 nM, 3.6 nM and 1.81 nM.
In the case of `Cc1nc(N)cc(-c2nc3c4c(nc(OCC56CCN5CC(F)(F)C6)nc4c2F)N2C[C@H]4CC[C@H](N4)[C@H]2[C@H](C)O3)c1C(F)(F)F` (stereo partly drawn) [Compound 214, 4-((5S,5aS,6S,9R)-12-((3,3-Difluoro-1-azabicyclo[3.2.0]heptan-5-yl)methoxy)-1-fluoro-5-methyl-5°,6,7,8,9,10-hexahydro-5H-4-oxa-3,10°,11,13,14-pentaaza-6,9-methanonaphtho[1,8-ab]heptalen-2-yl)-6-methyl-5-(trifluoromethyl)pyridin-2-amine], the IC50 in assay [1] amounted to 7030 nM; in assay [2], 25.4 nM; in assay [3], 8.04 nM.
For `Cc1nc(N)cc(-c2nc3c4c(nc(OC[C@@]56CCCN5C[C@H](F)C6)nc4c2F)N2C[C@H]4CC[C@H](N4)[C@H]2[C@H](C)O3)c1C(F)(F)F` [Compound 215, 4-((5S,5aS,6S,9R)-1-Fluoro-12-(((2R,7aS)-2-fluorotetrahydro-1H-pyrrolizin-7°(5H)-yl)methoxy)-5-methyl-5°,6,7,8,9,10-hexahydro-5H-4-oxa-3,10°,11,13,14-pentaaza-6,9-methanonaphtho[1,8-ab]heptalen-2-yl)-6-methyl-5-(trifluoromethyl)pyridin-2-amine], in that order: 831 nM, 7.8 nM and 2.5 nM.
For `Cc1nc(N)cc(-c2nc3c4c(nc(OC[C@@]56CCCN5CC5(CC5(F)F)C6)nc4c2F)N2C[C@H]4CC[C@H](N4)[C@H]2[C@H](C)O3)c1C(F)(F)F` (stereo partly drawn) [Compound 216, 4-((5S,5aS,6S,9R)-12-(((7a′S)-2,2-Difluorodihydro-1′,3′H-spiro[cyclopropane-1,2′-pyrrolizin]-7a′(5′H)-yl)methoxy)-1-fluoro-5-methyl-5a,6,7,8,9,10-hexahydro-5H-4-oxa-3,10a,11,13,14-pentaaza[6,9]methanonaphtho[1,8-ab]heptalene-2-yl)-6-methyl-5-(trifluoromethyl)pyridin-2-amine], in that order: 161 nM, 0.6 nM and 0.893 nM.
Taken in the same sequence, the figures for `Cc1c(F)c(N)c(F)c(-c2nc3c4c(nc(OCC5(CN6CCOCC6)CC5)nc4c2F)N2C[C@H]4CC[C@H](N4)[C@H]2[C@H](C)O3)c1C(F)(F)F` [Compound 224, 2,6-Difluoro-3-((5S,5aS,6S,9R)-1-fluoro-5-methyl-12-((1-(morpholinomethyl)cyclopropyl)methoxy)-5a,6,7,8,9,10-hexahydro-5H-4-oxa-3,10a,11,13,14-pentaaza-6,9-methanonaphtho[1,8-ab]heptalen-2-yl)-5-methyl-4-(trifluoromethyl)aniline] were 711 nM, 3.5 nM and 2.72 nM.
Regarding `Cc1c(F)c(N)c(F)c(-c2nc3c4c(nc(OC[C@@]56CCCN5CC5(CC5(F)F)C6)nc4c2F)N2C[C@H]4CC[C@H](N4)[C@H]2[C@H](C)O3)c1C(F)(F)F` (stereo partly drawn) [Compound 225, 3-((5S,5aS,6S,9R)-12-(((7′S)-2,2-Difluorodihydro-1′H,3′H-spiro[cyclopropane-1,2′-pyrrolizin]-7a′(5′H)-yl)methoxy)-1-fluoro-5-methyl-5a,6,7,8,9,10-hexahydro-5H-4-oxa-3,10a,11,13,14-pentaaza[6,9]methanonaphtho[1,8-ab]heptalene-2-yl)-2,6-difluoro-5-methyl-4-(trifluoromethyl)aniline], the 50% inhibitory concentration (IC50) in assay [1] is 561 nM; in assay [2], 2.9 nM; in assay [3], 1.19 nM.
For `Cc1cc(N)c(F)c(-c2nc3c4c(nc(OCC5(CN6CCOCC6)CC5)nc4c2F)N2C[C@H]4CC[C@H](N4)[C@H]2[C@H](C)O3)c1C(F)(F)F` [Compound 226, 2-Fluoro-3-((5S,5aS,6S,9R)-1-fluoro-5-methyl-12-((1-(morpholinomethyl)cyclopropyl)methoxy)-5a,6,7,8,9,10-hexahydro-5H-4-oxa-3,10a,11,13,14-pentaaza-6,9-methanonaphtho[1,8-ab]heptalene-2-yl)-5-methyl-4-(trifluoromethyl)aniline], in that order: 568 nM, 1.2 nM and 0.86 nM.
For `Cc1nc(N)cc(-c2nc3c4c(nc(OC[C@@]56CCCN5C[C@H](F)C6)nc4c2F)N2C[C@H]4CC[C@H](N4)[C@H]2[C@H](C(F)(F)F)O3)c1C(F)(F)F` [Compound 242, 4-((5R,5aS,6S,9R)-1-Fluoro-12-(((2R,7aS)-2-fluorotetrahydro-1H-pyrrolizin-7a(5H)-yl)methoxy)-5-(trifluoromethyl)-5a,6,7,8,9,10-hexahydro-5H-4-oxa-3,10a,11,13,14-pentaaza-6,9-methanonaphtho[1,8-ab]heptalen-2-yl)-6-methyl-5-(trifluoromethyl)pyridin-2-amine], in that order: 1040 nM, 7.8 nM and 5.11 nM.
Take `Cc1c(F)c(N)cc(-c2nc3c4c(nc(OC[C@@H]5CC[C@H]6COCCN65)nc4c2F)N2C[C@H]4CC[C@H](N4)[C@H]2[C@H](C(F)(F)F)O3)c1C(F)(F)F` [Compound 245, 2-Fluoro-5-((5R,5aS,6S,9R)-1-fluoro-12-(((6S,8aS)-hexahydro-1H-pyrrolo[2,1-c][1,4]oxazin-6-yl)methoxy)-5-(trifluoromethyl)-5a,6,7,8,9,10-hexahydro-5H-4-oxa-3,10a,11,13,14-pentaaza-6,9-methanonaphtho[1,8-ab]heptalene-2-yl)-3-methyl-4-(trifluoromethyl)aniline]: the IC50 in assay [1] is 739 nM; in assay [2] it was 3.6 nM; in assay [3] it was 4.13 nM.
Taken in the same sequence, the figures for `Cc1c(F)c(N)cc(-c2nc3c4c(nc(OC[C@@]56CCCN5C[C@H](F)C6)nc4c2F)N2C[C@H]4CC[C@H](N4)[C@H]2[C@H](C(F)(F)F)O3)c1C(F)(F)F` [Compound 247, 2-Fluoro-5-((5R,5aS,6S,9R)-1-fluoro-12-(((2R,7aS)-2-fluorotetrahydro-1H-pyrrolizin-7a(5H)-yl)methoxy)-5-(trifluoromethyl)-5a,6,7,8,9,10-hexahydro-5H-4-oxa-3,10a,11,13,14-pentaaza-6,9-methanonaphtho[1,8-ab]heptalene-2-yl)-3-methyl-4-(trifluoromethyl)aniline] were 643 nM, 1 nM and 1.64 nM.
Take `Cc1c(F)c(N)cc(-c2nc3c4c(nc(OC[C@@]56CCCN5C[C@H](F)C6)nc4c2F)N2C[C@H]4CC[C@H](N4)[C@@H]2[C@@H](C(F)(F)F)O3)c1C(F)(F)F` [Compound 248, 2-Fluoro-5-((5S,5aR,6S,9R)-1-fluoro-12-(((2R,7aS)-2-fluorotetrahydro-1H-pyrrolizin-7a(5H)-yl)methoxy)-5-(trifluoromethyl)-5a,6,7,8,9,10-hexahydro-5H-4-oxa-3,10a,11,13,14-pentaaza-6,9-methanonaphtho[1,8-ab]heptalene-2-yl)-3-methyl-4-(trifluoromethyl)aniline]: the IC50 in assay [1] is 244 nM; in assay [2] it was 27.9 nM; in assay [3] it was 12.5 nM.
Taken in the same sequence, the figures for `Cc1c(F)c(N)cc(-c2nc3c4c(nc(OCC5(CN6CCOCC6)CC5)nc4c2F)N2C[C@H]4CC[C@H](N4)[C@H]2[C@H](C(F)(F)F)O3)c1C(F)(F)F` [Compound 249, 2-Fluoro-5-((5R,5aS,6S,9R)-1-fluoro-12-((1-(morpholinomethyl)cyclopropyl)methoxy)-5-(trifluoromethyl)-5a,6,7,8,9,10-hexahydro-5H-4-oxa-3,10a,11,13,14-pentaaza-6,9-methanonaphtho[1,8-ab]heptalene-2-yl)-3-methyl-4-(trifluoromethyl)aniline] were 417 nM, 1.1 nM and 1.37 nM.
Take `C#Cc1cccc2cc(O)cc(-c3nc4c5c(nc(OC[C@@]67CCCN6C[C@H](F)C7)nc5c3F)N3C[C@H]5CC[C@H](N5)[C@H]3[C@H](C(F)(F)F)O4)c12` [Compound 251]: the IC50 in assay [1] was found to be 234 nM; in assay [2], 1.9 nM; in assay [3], 2.3 nM.
